One data set deals with Candida albicans. The data set is described as follows: Antimicrobial activity against Candida albicans assessed as reduction in microbial growth. In kind it is functional.
For data set [1], the system named is Staphylococcus aureus. The data set is described as follows: Antimicrobial activity against Staphylococcus aureus assessed as reduction in microbial growth. The data set is classed as functional.
The test system of data set [2] is Staphylococcus aureus. Kind of data set: Antimicrobial activity against methicillin-resistant Staphylococcus aureus assessed as reduction in microbial growth. The data set is classed as functional.
For a further data set, the system named is Bacillus subtilis. The data set is described as follows: Antimicrobial activity against Bacillus subtilis assessed as reduction in microbial growth. In kind it is functional.
The subject of data set [3] is Escherichia coli. The data set is described as follows: Antimicrobial activity against Escherichia coli assessed as reduction in microbial growth. In kind it is functional.
The subject of data set [4] is Mycobacterium tuberculosis. Kind of data set: Antitubercular activity against Mycobacterium tuberculosis H37Rv by agar dilution method. In kind it is functional.
Data set [5] can be described thus: Cytotoxicity against human WI-38 cells assessed as reduction in cell growth. In kind it is toxicity, cell-based.
Data set [6] can be described thus: Selectivity index, ratio of CC50 for human WI-38 cells to MIC for Mycobacterium tuberculosis H37Rv. In kind it is toxicity. The conditions noted are these: read-out: Selectivity Index.
Data set [7] deals with Staphylococcus aureus. Kind of data set: Antibacterial activity against methicillin resistant Staphylococcus aureus at 1 times MIC measured after 150 mins by time kill assay. In kind it is functional, organism-based.
Data set [8] deals with Staphylococcus aureus. The data set is described as follows: Antibacterial activity against methicillin resistant Staphylococcus aureus at 1 times MIC measured after 180 mins by time kill assay. In kind it is functional, organism-based.
Data set [9] deals with Escherichia coli. The data set is described as follows: Antibacterial activity against Escherichia coli at 1 times MIC measured after 150 mins by time kill assay. In kind it is functional, organism-based.
Data set [10] relates to Staphylococcus aureus. Kind of data set: Antibacterial activity against methicillin resistant Staphylococcus aureus at 1 times MIC measured after 120 to 150 mins by time kill assay. The data set is classed as functional, organism-based. Particulars: time 120-150 min.
The subject of data set [11] is Escherichia coli. Kind of data set: Antibacterial activity against Escherichia coli at 1 times MIC measured after 120 to 150 mins by time kill assay. In kind it is functional, organism-based. The conditions noted are these: time 120-150 min.

Converted amounts (≈) assume the structure as drawn. The source made the active and inactive calls.

For orientation: MIC means the smallest concentration in the dilution series that meets the test's criterion for growth inhibition. `OC(Cn1cncn1)(Cn1cncn1)c1ccc(F)cc1F` [FLUCONAZOLE]: the minimal inhibitory concentration (MIC) with Candida albicans was found to be 14.9 µM.
The term CC50 denotes the concentration at which the toxic effect on the cells reaches its halfway point. In the case of `O=C1S/C(=C\c2cnc(C(F)(F)F)nc2)C(=O)N1C(=O)c1ccc(F)cc1`, the MIC in the data set on Staphylococcus aureus [1] is 13.7 µM; in the data set on Staphylococcus aureus [2], 31.7 µM; in the data set on Bacillus subtilis it was 12.8 µM; with Escherichia coli [3] it was 15.1 µM; in the data set on Candida albicans it was 16.8 µM; in data set [4] it was 3.25 µM (≈ 1.29 µg/mL). Also, the CC50 in data set [5] is > 50 µM. The selectivity ratio in [6] is 15.4.
With GENTAMICIN, the outcome in the data set on Staphylococcus aureus [7] was inactive.
Consider `NNC(=O)c1ccncc1` [ISONIAZID], for which, in data set [4], the MIC came to 0.35 µM (≈ 0.048 µg/mL). For the same molecule, in data set [5], the CC50 is > 50 µM. Also, the selectivity ratio in [6] stood at 143.
Consider `O=C1S/C(=C\c2cnc(C(F)(F)F)nc2)C(=O)N1C(=O)c1cc(F)c(F)c(F)c1`, for which the MIC in the data set with Staphylococcus aureus [1] is 8.6 µM; with Staphylococcus aureus [2], 15.4 µM; in the data set on Bacillus subtilis, 8.1 µM; with Escherichia coli [3] it was 9.7 µM; in the data set with Candida albicans it was 9.5 µM; in [4], 0.32 µM (≈ 0.139 µg/mL). Besides, the CC50 in [5] was > 50 µM. In addition, the selectivity ratio in data set [6] stood at 156. In addition, the outcome with Staphylococcus aureus [8] and in the data set on Escherichia coli [9] was Active.
Consider `O=C1S/C(=C\c2cnc(C(F)(F)F)nc2)C(=O)N1C(=O)c1ccc(C(F)(F)F)cc1`, for which the MIC is 6.4 µM in the data set with Staphylococcus aureus [1]; 10.8 µM in the data set with Staphylococcus aureus [2]; 6.1 µM in the data set on Bacillus subtilis; 8.4 µM with Escherichia coli [3]; 8.1 µM in the data set on Candida albicans; 0.22 µM (≈ 0.0984 µg/mL) in data set [4]. In [5], the 50% cytotoxic concentration (CC50) was > 50 µM. In addition, the selectivity ratio in data set [6] is 227. The result with Staphylococcus aureus [10] and with Escherichia coli [11] was Active.
Regarding `O=C1S/C(=C\c2cnc(C(F)(F)F)nc2)C(=O)N1C(=O)c1ccc(Br)cc1`, the MIC in the data set with Staphylococcus aureus [1] was found to be 20.7 µM; with Staphylococcus aureus [2] it was 48.2 µM; in the data set on Bacillus subtilis, 17.3 µM; in the data set with Escherichia coli [3], 22.6 µM; in the data set on Candida albicans, 4.7 µM; in data set [4], 6.12 µM (≈ 2.8 µg/mL). In [5], the CC50 is > 50 µM. Besides, in data set [6], the selectivity ratio stood at 8.17.
In the case of `O=C1S/C(=C\c2cnc(C(F)(F)F)nc2)C(=O)N1C(=O)c1ccc(Cl)cc1`, the MIC in the data set on Staphylococcus aureus [1] is 16.8 µM; in the data set with Staphylococcus aureus [2] it was 36.4 µM; with Bacillus subtilis it was 14.4 µM; in the data set on Escherichia coli [3], 17.8 µM; in the data set on Candida albicans, 19.4 µM; in data set [4], 4.83 µM (≈ 2 µg/mL). The cytotoxic concentration (CC50) in data set [5] was > 50 µM. Also, in data set [6], the selectivity ratio turned out to be 10.3.
With `Cc1ccc(C(=O)N2C(=O)S/C(=C\c3cnc(C(F)(F)F)nc3)C2=O)cc1`, the MIC with Staphylococcus aureus [1] amounted to 30.6 µM; in the data set with Staphylococcus aureus [2], 71.8 µM; with Bacillus subtilis it was 24.9 µM; in the data set with Escherichia coli [3], 35.8 µM; in the data set with Candida albicans it was 41.3 µM; in [4], 8.49 µM (≈ 3.34 µg/mL). For the same molecule, the CC50 in data set [5] was > 50 µM. Besides, in data set [6], the selectivity ratio turned out to be 5.89.
`O=C1S/C(=C\c2cnc(C(F)(F)F)nc2)C(=O)N1C(=O)c1ccc(O)cc1`: the MIC in the data set on Staphylococcus aureus [1] came to 37.4 µM; in the data set on Staphylococcus aureus [2], 79.2 µM; with Bacillus subtilis it was 28.3 µM; in the data set with Escherichia coli [3] it was 40.9 µM; in the data set on Candida albicans, 53.7 µM; in data set [4], 10.9 µM (≈ 4.31 µg/mL). In [5], the CC50 is > 50 µM. For the same molecule, the selectivity ratio in [6] is 4.58.
Turning to `O=C1S/C(=C\c2cnc(C(F)(F)F)nc2)C(=O)N1C(=O)c1ccccc1`, the MIC with Staphylococcus aureus [1] stood at 27.1 µM; with Staphylococcus aureus [2], 62.5 µM; in the data set with Bacillus subtilis, 19.5 µM; in the data set on Escherichia coli [3], 28.3 µM; with Candida albicans, 30.6 µM; in data set [4], 5.62 µM (≈ 2.13 µg/mL). In [5], the CC50 was > 50 µM. Further, the selectivity ratio in [6] was 8.89.
`CC(=O)NC[C@H]1CN(c2ccc(N3CCOCC3)c(F)c2)C(=O)O1` [LINEZOLID]: in the data set with Staphylococcus aureus [2], the minimum inhibitory concentration (MIC) stood at 23.1 µM.
As for `O=C1S/C(=C\c2cnc(C(F)(F)F)nc2)C(=O)N1C(=O)c1cc(F)cc(F)c1`, the MIC is 10.3 µM with Staphylococcus aureus [1]; 21.9 µM with Staphylococcus aureus [2]; 9.7 µM in the data set on Bacillus subtilis; 11.2 µM in the data set with Escherichia coli [3]; 11.8 µM with Candida albicans; 0.71 µM (≈ 0.295 µg/mL) in data set [4]. Moreover, the CC50 in [5] is > 50 µM. The selectivity ratio in [6] was determined as 70.4.
Take `O=C1S/C(=C\c2cnc(C(F)(F)F)nc2)C(=O)N1C(=O)c1ccc([N+](=O)[O-])cc1`: the MIC in the data set on Staphylococcus aureus [1] turned out to be 10.9 µM; in the data set with Staphylococcus aureus [2] it was 24.1 µM; in the data set on Bacillus subtilis, 10.2 µM; in the data set with Escherichia coli [3], 11.7 µM; with Candida albicans it was 12.9 µM; in data set [4] it was 1.06 µM (≈ 0.45 µg/mL). For the same molecule, the CC50 in data set [5] was > 50 µM. Further, the selectivity ratio in [6] amounted to 47.2.
Regarding `CN[C@@H]1[C@H](O[C@H]2[C@H](O[C@H]3[C@H](O)[C@@H](O)[C@H](N=C(N)N)[C@@H](O)[C@@H]3N=C(N)N)O[C@@H](C)[C@]2(O)C=O)O[C@@H](CO)[C@H](O)[C@H]1O` [STREPTOMYCIN], the MIC in the data set on Staphylococcus aureus [1] turned out to be 11.9 µM; in the data set with Bacillus subtilis, 11.5 µM; with Escherichia coli [3], 14.3 µM.

These data come from ChEMBL document CHEMBL5385943, “Synthesis, biological evaluation and molecular docking study of pyrimidine linked thiazolidinedione derivatives as potential antimicrobial and antitubercular agents” (Bioorg Med Chem Lett, 2024).
